Reference: US11541055B2, “Inhibitors of human immunodeficiency virus replication” (ViiV Healthcare UK (No. 5) LIMITED, priority 2018, dated 2023)
pEC50: −log10 of the molar value.

How the values were obtained:
[1] = test system: recombinant NL4-3 virus (Renilla luciferase) in MT-2 cells; test: HIV cell culture assay (antiviral activity, luciferase readout); format: cell-based; conditions: Renilla, NL43
Experimental: HIV cell culture assay—MT-2 cells, 293T cells and the proviral DNA clone of NL4-3 virus were obtained from the NIH AIDS Research and Reference Reagent Program. MT-2 cells were propagated in RPMI 1640 media supplemented with 10% heat inactivated fetal bovine serum (FBS), […]. The 293T cells were propagated in DMEM media supplemented with 10% heat inactivated FBS, […] penicillin G and […] streptomycin. A recombinant NL40.3 proviral clone, in which a section of the nef gene was replaced with the Renilla luciferase gene, was used to make the reference virus used in these studies. The recombinant virus was prepared through transfection of the recombinant NL4-3 proviral clone into 293T cells using Transit-293 Transfection Reagent from Minis Bio LLC (Madison, Wis.). Supernatent was harvested after 2-3 days and the amount of virus present was titered in MT-2 cells using luciferase enzyme activity as a marker by measuring luciferase enzyme activity. Luciferase was quantitated using the EnduRen Live Cell Substrate from Promega (Madison, Wis.). Antiviral activities of compounds toward the recombinant virus were quantified by measuring luciferase activity in MT-2 cells infected for 4-5 days with the recombinant virus in the presence of serial dilutions of the compound.
The 50% effective concentration (EC50) was calculated by using the exponential form of the median effect equation where (Fa)=1/[1+(ED50/drug conc.)m] (Johnson V A, Byington R T. Infectivity Assay. In Techniques in HIV Research. ed. Aldovini A, Walker B D. 71-76. New York: Stockton Press. 1990). The 50% inhibitory concentration (EC50) was calculated by using the exponential form of the median effect equation where percent inhibition=1/[1+(EC50/drug concentration)m], where m is a parameter that reflects the slope of the concentration-response curve.

[2] = Compound cytotoxicity, XTT-based colorimetric assay; format: cell-based; conditions: human; uninfected MT2 cells, day 4, XTT
Experimental: Compound cytotoxicity and the corresponding CC50 values were determined using the same protocol as described in the antiviral assay except that uninfected cells were used. Cytotoxicity was assessed on day 4 in uninfected MT2 cells by using a XTT (2,3-bis[2-Methoxy-4-nitro-5-sulfophenyl]-2H-tetrazolium-5-carboxyanilide inner salt)-based colorimetric assay (Sigma-Aldrich, St Louis, Mo.).

SMILES: Cc1ccc(F)c(-c2ccc3c(=O)n(-c4ccc(Cl)c5c(NS(=O)(=O)C6CC6)nn(CC(F)F)c45)c([C@H](Cc4cc(F)cc(F)c4)NC(=O)Cn4nc(C(F)F)c5c4C(F)(F)[C@@H]4C[C@H]54)nc3c2)n1 (atropisomer, axis not shown) [Example 96, N-[(1S)-1-{3-[4-chloro-3-cyclopropanesulfonamido-1-(2,2-difluoroethyl)-1H-indazol-7-yl]-7-(3-fluoro-6-methylpyridin-2-yl)-4-oxo-3,4-dihydroquinazolin-2-yl}-2-(3,5-difluorophenyl)ethyl]-2-[(2S,4R)-9-(difluoromethyl)-5,5-difluoro-7,8-diazatricyclo[4.3.0.0^2,^4]nona-1(6),8-dien-7-yl]acetamide]
- pEC50 [1]: 9.62
- CC50 at 4 days [2]: > 500 nM

SMILES: Cc1ncc(-c2ccc3c(=O)n(-c4ccc(Cl)c5c(NS(=O)(=O)C6CC6)nn(CC(F)F)c45)c([C@H](Cc4cc(F)cc(F)c4)NC(=O)Cn4nc(C(F)F)c5c4C(F)(F)[C@@H]4C[C@H]54)nc3c2)s1 (atropisomer, axis not shown) [Example 97, N-[(1S)-1-{3-[4-chloro-3-cyclopropanesulfonamido-1-(2,2-difluoroethyl)-1H-indazol-7-yl]-7-(2-methyl-1,3-thiazol-5-yl)-4-oxo-3,4-dihydroquinazolin-2-yl}-2-(3,5-difluorophenyl)ethyl]-2-[(2S,4R)-9-(difluoromethyl)-5,5-difluoro-7,8-diazatricyclo[4.3.0.0^2,^4]nona-1(6),8-dien-7-yl]acetamide]
- pEC50 [1]: 9.66
- CC50 at 4 days [2]: > 500 nM

SMILES: COc1cnc(-c2ccc3c(=O)n(-c4ccc(Cl)c5c(NS(=O)(=O)C6CC6)nn(CC(F)F)c45)c([C@H](Cc4cc(F)cc(F)c4)NC(=O)Cn4nc(C(F)F)c5c4C(F)(F)[C@@H]4C[C@H]54)nc3c2)nc1 (atropisomer, axis not shown) [Example 98, N-[(1S)-1-{3-[4-chloro-3-cyclopropanesulfonamido-1-(2,2-difluoroethyl)-1H-indazol-7-yl]-7-(5-methoxypyrimidin-2-y1)-4-oxo-3,4-dihydroquinazolin-2-yl}-2-(3,5-difluorophenyl)ethyl]-2-[(2S,4R)-9-(difluoromethyl)-5,5-difluoro-7,8-diazatricyclo[4.3.0.0^2,^4]nona-1(6),8-dien-7-yl]acetamide]
- pEC50 [1]: 9.80
- CC50 at 4 days [2]: > 500 nM

SMILES: COc1ncc(-c2ccc3c(=O)n(-c4ccc(Cl)c5c(NS(=O)(=O)C6CC6)nn(CC(F)F)c45)c([C@H](Cc4cc(F)cc(F)c4)NC(=O)Cn4nc(C(F)F)c5c4C(F)(F)[C@@H]4C[C@H]54)nc3c2)cn1 (atropisomer, axis not shown) [Example 99]
- pEC50 [1]: 10.05
- CC50 at 4 days [2]: > 500 nM

SMILES: Cc1nccc(-c2ccc3c(=O)n(-c4ccc(Cl)c5c(NS(C)(=O)=O)nn(CC(F)(F)F)c45)c([C@H](Cc4cc(F)cc(F)c4)NC(=O)Cn4nc(C(F)F)c5c4C(F)(F)[C@@H]4C[C@H]54)nc3c2)n1 (atropisomer, axis not shown) [Example 100, N-[(1S)-1-{3-[4-chloro-3-methanesulfonamido-1-(2,2,2-trifluoroethyl)-1H-indazol-7-yl]-7-(2-methylpyrimidin-4-yl)-4-oxo-3,4-dihydroquinazolin-2-yl}-2-(3,5-difluorophenyl)ethyl]-2-[(2S,4R)-9-(difluoromethyl)-5,5-difluoro-7,8-diazatricyclo[4.3.0.0^2,^4]nona-1(6),8-dien-7-yl]acetamide]
- pEC50 [1]: 10.38
- CC50 at 4 days [2]: > 500 nM

SMILES: Cc1cc(C)nc(-c2ccc3c(=O)n(-c4ccc(Cl)c5c(NS(C)(=O)=O)nn(CC(F)(F)F)c45)c([C@H](Cc4cc(F)cc(F)c4)NC(=O)Cn4nc(C(F)F)c5c4C(F)(F)[C@@H]4C[C@H]54)nc3c2)c1 (atropisomer, axis not shown) [Example 101, N-[(1S)-1-{3-[4-chloro-3-methanesulfonamido-1-(2,2,2-trifluoroethyl)-1H-indazol-7-yl]-7-(4,6-dimethylpyridin-2-yl)-4-oxo-3,4-dihydroquinazolin-2-yl}-2-(3,5-difluorophenyl)ethyl]-2-[(2S,4R)-9-(difluoromethyl)-5,5-difluoro-7,8-diazatricyclo[4.3.0.0^2,^4]nona-1(6),8-dien-7-yl]acetamide]
- pEC50 [1]: 9.68
- CC50 at 4 days [2]: > 500 nM

SMILES: CS(=O)(=O)Nc1nn(CC(F)(F)F)c2c(-n3c([C@H](Cc4cc(F)cc(F)c4)NC(=O)Cn4nc(C(F)F)c5c4C(F)(F)[C@@H]4C[C@H]54)nc4cc(-c5nccc(C(F)(F)F)n5)ccc4c3=O)ccc(Cl)c12 (atropisomer, axis not shown) [Example 102]
- pEC50 [1]: 9.89
- CC50 at 4 days [2]: > 500 nM

SMILES: Cc1cc(-c2ccc3c(=O)n(-c4ccc(Cl)c5c(NS(C)(=O)=O)nn(CC(F)(F)F)c45)c([C@H](Cc4cc(F)cc(F)c4)NC(=O)Cn4nc(C(F)F)c5c4C(F)(F)[C@@H]4C[C@H]54)nc3c2)nc(C)n1 (atropisomer, axis not shown) [Example 103, N-[(1S)-1-{3-[4-chloro-3-methanesulfonamido-1-(2,2,2-trifluoroethyl)-1H-indazol-7-yl]-7-(2,6-dimethylpyrimidin-4-yl)-4-oxo-3,4-dihydroquinazolin-2-yl}-2-(3,5-difluorophenyl)ethyl]-2-[(2S,4R)-9-(difluoromethyl)-5,5-difluoro-7,8-diazatricyclo[4.3.0.0^2,^4]nona-1(6),8-dien-7-yl]acetamide]
- pEC50 [1]: 10.23
- CC50 at 4 days [2]: > 500 nM

SMILES: CS(=O)(=O)Nc1nn(CC(F)(F)F)c2c(-n3c([C@H](Cc4cc(F)cc(F)c4)NC(=O)Cn4nc(C(F)F)c5c4C(F)(F)[C@@H]4C[C@H]54)nc4cc(-c5nccc(C(F)F)n5)ccc4c3=O)ccc(Cl)c12 (atropisomer, axis not shown) [Example 104, N-[(1S)-1-{3-[4-chloro-3-methanesulfonamido-1-(2,2,2-trifluoroethyl)-1H-indazol-7-yl]-7-[4-(difluoromethyl)pyrimidin-2-yl]-4-oxo-3,4-dihydroquinazolin-2-yl}-2-(3,5-difluorophenyl)ethyl]-2-[(2S,4R)-9-(difluoromethyl)-5,5-difluoro-7,8-diazatricyclo[4.3.0.0^2,^4]nona-1(6),8-dien-7-yl]acetamide]
- pEC50 [1]: 10.20
- CC50 at 4 days [2]: > 500 nM

SMILES: Cc1ccc(-c2ccc3c(=O)n(-c4ccc(Cl)c5c(NS(C)(=O)=O)nn(CC(F)(F)F)c45)c([C@H](Cc4cc(F)cc(F)c4)NC(=O)Cn4nc(C(F)F)c5c4C(F)(F)[C@@H]4C[C@H]54)nc3c2)nn1 (atropisomer, axis not shown) [Example 106, N-[(1S)-1-{3-[4-chloro-3-methanesulfonamido-1-(2,2,2-trifluoroethyl)-1H-indazol-7-yl]-7-(6-methylpyridazin-3-yl)-4-oxo-3,4-dihydroquinazolin-2-yl}-2-(3,5-difluorophenyl)ethyl]-2-[(2S,4R)-9-(difluoromethyl)-5,5-difluoro-7,8-diazatricyclo[4.3.0.0^2,^4]nona-1(6),8-dien-7-yl]acetamide]
- pEC50 [1]: 10.37
- CC50 at 4 days [2]: > 500 nM

SMILES: CS(=O)(=O)Nc1nn(CC(F)(F)F)c2c(-n3c([C@H](Cc4cc(F)cc(F)c4)NC(=O)Cn4nc(C(F)F)c5c4C(F)(F)[C@@H]4C[C@H]54)nc4cc(-c5cccnn5)ccc4c3=O)ccc(Cl)c12 (atropisomer, axis not shown) [Example 107, N-[(1S)-1-{3-[4-chloro-3-methanesulfonamido-1-(2,2,2-trifluoroethyl)-1H-indazol-7-yl]-4-oxo-7-(pyridazin-3-yl)-3,4-dihydroquinazolin-2-yl}-2-(3,5-difluoropheny)ethyl]-2-[(2S,4R)-9-(difluoromethyl)-5,5-difluoro-7,8-diazatricyclo[4.3.0.0^2,^4]nona-1(6),8-dien-7-yl]acetamide]
- pEC50 [1]: 10.32
- CC50 at 4 days [2]: > 500 nM

SMILES: CC(C)c1nccc(-c2ccc3c(=O)n(-c4ccc(Cl)c5c(NS(C)(=O)=O)nn(CC(F)(F)F)c45)c([C@H](Cc4cc(F)cc(F)c4)NC(=O)Cn4nc(C(F)F)c5c4C(F)(F)[C@@H]4C[C@H]54)nc3c2)n1 (atropisomer, axis not shown) [Example 108]
- pEC50 [1]: 9.92
- CC50 at 4 days [2]: > 500 nM

SMILES: Cc1nc(C)c(C)c(-c2ccc3c(=O)n(-c4ccc(Cl)c5c(NS(C)(=O)=O)nn(CC(F)(F)F)c45)c([C@H](Cc4cc(F)cc(F)c4)NC(=O)Cn4nc(C(F)F)c5c4C(F)(F)[C@@H]4C[C@H]54)nc3c2)n1 (atropisomer, axis not shown) [Example 109, N-[(1S)-1-{3-[4-chloro-3-methanesulfonamido-1-(2,2,2-trifluoroethyl)-1H-indazol-7-yl]-4-oxo-7-(2,5,6-trimethylpyrimidin-4-yl)-3,4-dihydroquinazolin-2-yl}-2-(3,5-difluorophenyl)ethyl]-2-[(2S,4R)-9-(difluoromethyl)-5,5-difluoro-7,8-diazatricyclo[4.3.0.0^2,^4]nona-1(6),8-dien-7-yl]acetamide]
- pEC50 [1]: 9.96
- CC50 at 4 days [2]: > 500 nM
